Marks after values point to notes of the source that are not given here.
Experiments:
[1] = oxygen radical absorbance capacity (ORAC) experiment; details: relative to Trolox; AAPH, fluorescein
Procedure: The antioxidant activity of the compounds was evaluated by using the oxygen radical absorbance capacity (ORAC) experiment. The detailed experimental procedure is as follows. 0.248 g of AAPH (2,2′-azobisisobutylamidine dihydrochloride) was added to a 50 mL phosphate buffer system to formulate a 18.3 mM AAPH stock solution. 20 μL of phosphate buffer, 20 μL solution of sample to be tested or standard substance Trolox (concentration of 6.25 μM) and 20 μL of fluorescent substance of disodium fluorescein (FL, concentration of 630 nM) were added to the wells of a 96-well plate in order. Then, 140 μL of AAPH (concentration of 18.3 mM) was quickly added to the wells of the 96-well plate, which was immediately placed in a GENios […] microplate reader manufactured by Tecan, Switzerland, the excitation wavelength was set as 485 nm and the emission wavelength was set as 527 nm. The fluorescence intensity was measured every 2 minutes and recorded for a total of 100 min.
The antioxidant capacity of the active substance is calculated as follows: Relative ORAC value=(AUCsample−AUCblank)/(AUCtrolox−AUCblank). Wherein, AUCsample refers to the integral area under the fluorescence decay curve of the test sample, AUCtrolox refers to the integral area under the fluorescence decay curve of the standard substance Trolox, and AUCblank refers to the integral area under the fluorescence decay curve when the test sample or the standard substance Trolox is not added.

[2] = tested on: Senile dementia fruit fly (Aβ42; P35*H29.3); assay: learning and memory (olfactory short-term memory, T-Maze) of Senile dementia fruit fly; type: in vivo; details: performance index, 100 μM in feed, n = 6
Text: W^1118 (isoCJ1), as a background fruit fly of control group in the experiment, was abbreviated as “2U”. The fruit flies that successfully introduced with the pathogenic Aβ42 protein were (UAS-Aβ42; abbreviated as “H29.3”). This strain of fruit flies was hybridized with the fruit fly expressing the Gal4 promoter in whole brain, and the fruit fly strain carrying elav-GAL4^c155 (P35) and Aβ42 was obtained.
Three groups of drug-free control of healthy fruit fly, drug-free control of disease fruit fly, and dose disease fruit fly were set in the experiment.
All parents of tested fruit flies were housed and propagated at a constant temperature of 24° C. and a humidity of 42% RH (Relative humidity). On the first day after the emergence of the fruit flies, the fruit flies of control group and disease group, as well as the fruit flies to be administered were anesthetized with carbon dioxide, and then the fruit flies of the correct characters were selected into the glass tube containing food. During the dosing period, all tested fruit flies were kept in an incubator with a constant temperature of 28° C. and a constant humidity of 42% to ensure the drug taking efficiency of the fruit flies. Each day the fruit flies were administered for 4 hours, and the drug was administered from the second day after the fruit flies were selected until the 8th day.
The drugs administered were prepared on the second day after the fruit fly selection, and were administered to the fruit flies on the day of preparation. The drugs were dissolved by 100% DMSO to a concentration of 10 mM. When preparing the working solution, the 10 mM stock solution was diluted to 100 μM with 4% sucrose. In addition, the fruit flies of control group were fed sucrose water containing 1% DMSO. For each Performance Index, two tubes of fruit fly groups are required, each tube containing about 100 fruit flies.
Experiments were conducted in a light proof behavior room with constant temperature of 25° C., constant humidity of 70%. The method can be found in references^[1-3].
1) During the training stage, about 100 flies were loaded into a training tube provided with a copper mesh cross electrode. Two kinds of odors of octanol (OCT) and methylcyclohexanol (MCH) were successively introduced for each 60 s with an intervals for 45 s of fresh air. 60 V pulsed electrical shock stimulation (US, pulse duration 1.5 s, interval 3.5 s) was applied to the fruit flies while introducing the 1st odor. No electrical shock was applied when the second odor (CS−) was introduced. Thereby one training cycle was completed.
2) In the transient memory (learning) ability test, the fruit flies that completed one training cycle were immediately transferred to the selection point of T-Maze, while CS+ and CS− were introduced from the opposite two directions. After two minutes of selection, the fruit flies on both sides were collected separately and counted after anesthesia or sacrifice. The calculation formula for the performance index (PI) is as follows: PI=[(CS−)−(CS+)]/[(CS−)+(CS+)]×100.
Using OCT and MCH as CS+ for training and testing respectively, the average of the two PIs obtained was used as PI for one experiment. […] When performing the activity test, the short-term memory deficit tests for the olfactory sensation of the non-administered healthy flies with the same genetic background (2U*H29.3), non-administered Senile dementia disease flies (P35*H29.3), and test drug administered Senile dementia disease flies were also conducted, and their total learning and memory performance indexes (PIs) was calculated respectively. The learning and memory performance index of the test drug administered Senile dementia disease flies was compared with the performance index of the non-administered healthy flies with the same genetic background (2U*H29.3), and the performance index of the non-administered Senile dementia disease flies (P35*H29.3), to evaluate effect of the test drugs against Senile dementia. […]

HEp-2 cells = assay: Cytotoxicity assay (MTT); type: cell-based; details: 72 hours
Procedure: (§1) 1) HEp-2 cells were seeded in 96-well cell culture plates at 100 μL/well and the cell density was 2.5×10^5/mL. The cells were cultured in a 37° C., 5% CO2 incubator and grown into a cell single layer over about 20 h.
(§2) 2) The culture fluid in the 96-well plate was discarded and the sample to be tested was half diluted into different concentrations by using maintenance solution. For each dilution, 3 replicate wells were set at 100 μL/well, and cell control wells were also set at the same time. Then they were placed in the incubator to continue the culture.
(§3) 3) The cytopathic effect caused by sample toxicity was observed every day. After 72 hours, the culture solution was discarded, and according to the MTT method, 30 μL of 5 mg/mL MTT solution was added into each well. They were placed in the incubator to continue the incubation for 4 h in dark.

Cytotoxicity assay (MTT) = type: cell-based; details: human, HEp-2 cells
Procedure: as §1, §2, §3

[3] = tested on: respiratory syncytial virus (RSV); assay: microbe, parasite or virus in culture; type: cell-based; details: for SI = CC50/IC50: RSV, HEp-2 cells; for IC50: RSV in HEp-2 cells, CPE, 60-72 hours
Procedure: as §1
2) The culture fluid in the 96-well plate was discarded and the sample to be tested was half diluted by using maintenance solution with the starting concentration of the monomeric compound being 50 μM, and 50 μL of sample and 50 μL of 100×TCID50 of virus dilution being added into each well. The positive control drug Ribavirin group, virus control group and cell control group were set and placed in a 37° C., 5% CO2 incubator for culture.
3) The culture was continued for 60-72 hours, and the viral lesions in each group were recorded when the lesions were completely developed in the virus control group.
4) The virus-induced cytopathic effect was recorded as follows: no cellular lesion was recorded as “−”, 0 to 25% cellular lesions was recorded as “+”, 25% to 50% cellular lesion was recorded as “++”, 50%˜75% of cellular lesion was recorded as “+++”, and 75% to 100% of cellular lesion was recorded as “++++”. The sample concentration corresponding to the “++” lesion level is the half inhibitory concentration IC50 of the sample against the virus.
5) Three replicates were performed independently for each experiment.

SMILES | ORAC value [1] | PI (100 μM) ([2]; experiment a) | PI (100 μM) ([2]; experiment b) | PI (100 μM) ([2]; experiment c) | MNCC (HEp-2 cells) | CC50 at 72 h (Cytotoxicity assay (MTT)) | SI = CC50/IC50 [3] | IC50 ([3]; human respiratory syncytial virus) | CC50 (HEp-2 cells) | IC50 [3]
O=C(O[C@@H]1Cc2c(O)cc(O)cc2O[C@@H]1c1cc(O)c(O)c(O)c1)c1cc(O)c(O)c(O)c1 [EGCG, epigallocatechin gallate, reference compound] | 1.48 ± 0.02 μmol TE/μmol | – | – | – | – | – | – | – | – | –
CC12CC3CC(C)(C1)CC(N)(C3)C2 [Memantine, reference compound] | – | 43.1 ± 0.9*** | 42.7 ± 0.9*** | 44.2 ± 2.1*** | – | – | – | – | – | –
NC(=O)c1ncn([C@@H]2O[C@H](CO)[C@@H](O)[C@H]2O)n1 [Ribavirin, reference compound] | – | – | – | – | 15.32 ± 4.31 µM | 37.9 ± 3.82 µM | 15 | 2.5 µM | – | –
O=C(/C=C/c1ccc(O)c(O[C@@H]2O[C@H](CO)[C@@H](O)[C@H](O)[C@H]2O)c1)NCCCNCCCCNC(=O)CCc1ccc(O)c(O)c1 [formula III] | 1.87 ± 0.04 μmol TE/μmol | 42.9 ± 1.6*** | – | – | >100 µM | – | >4 | – | > 100 µM | 25 µM
O=C(/C=C/c1ccc(O)c(O)c1)NCCCNCCCCNC(=O)CCc1ccc(O[C@@H]2O[C@H](CO)[C@@H](O)[C@H](O)[C@H]2O)c(O)c1 [formula II] | 2.04 ± 0.04 μmol TE/μmol | 35.5 ± 3.8* | – | – | >100 µM | – | >4 | – | > 100 µM | 25 µM
O=C(/C=C/c1ccc(O)c(O)c1)NCCCNCCCCNC(=O)CCc1ccc(O)c(O[C@@H]2O[C@H](CO)[C@@H](O)[C@H](O)[C@H]2O)c1 [formula IV] | 1.73 ± 0.04 μmol TE/μmol | 42.2 ± 2.1*** | – | – | >100 µM | – | >4 | – | > 100 µM | 25 µM
O=C(/C=C\c1ccc(O)c(O[C@@H]2O[C@H](CO)[C@@H](O)[C@H](O)[C@H]2O)c1)NCCCNCCCCNC(=O)CCc1ccc(O[C@@H]2O[C@H](CO)[C@@H](O)[C@H](O)[C@H]2O)c(O)c1 [formula VIII] | 3.07 ± 0.02 μmol TE/μmol | – | 32.2 ± 2.3* | – | >100 µM | – | >2 | – | > 100 µM | –
O=C(/C=C/c1ccc(O)c(O[C@@H]2O[C@H](CO)[C@@H](O)[C@H](O)[C@H]2O)c1)NCCCNCCCCNC(=O)CCc1ccc(O)c(O[C@@H]2O[C@H](CO)[C@@H](O)[C@H](O)[C@H]2O)c1 [formula VII] | 1.02 ± 0.02 μmol TE/μmol | – | 44.6 ± 2.5*** | – | >100 µM | – | >2 | – | > 100 µM | –
O=C(/C=C/c1ccc(O[C@@H]2O[C@H](CO)[C@@H](O)[C@H](O)[C@H]2O)c(O)c1)NCCCNCCCCNC(=O)CCc1ccc(O)c(O)c1 [formula V] | 2.96 ± 0.03 μmol TE/μmol | 35.0 ± 1.3* | – | – | >100 µM | – | >4 | – | > 100 µM | 25 µM
O=C(CCc1ccc(O[C@@H]2O[C@H](CO)[C@@H](O)[C@H](O)[C@H]2O)c(O)c1)NCCCCNCCCNC(=O)CCc1ccc(O[C@@H]2O[C@H](CO)[C@@H](O)[C@H](O)[C@H]2O)c(O)c1 [formula XIII] | 2.06 ± 0.04 μmol TE/μmol | – | 42.5 ± 3.0*** | – | >100 µM | – | >4 | – | > 100 µM | 25 µM
O=C(CCc1ccc(O)c(O[C@@H]2O[C@H](CO)[C@@H](O)[C@H](O)[C@H]2O)c1)NCCCCNCCCNC(=O)CCc1ccc(O)c(O[C@@H]2O[C@H](CO)[C@@H](O)[C@H](O)[C@H]2O)c1 [formula XII] | 1.23 ± 0.04 μmol TE/μmol | – | 33.5 ± 3.0** | – | >100 µM | – | >2 | – | > 100 µM | –
O=C(CCc1ccc(O)c(O[C@@H]2O[C@H](CO)[C@@H](O)[C@H](O)[C@H]2O)c1)NCCCCNCCCNC(=O)CCc1ccc(O[C@@H]2O[C@H](CO)[C@@H](O)[C@H](O)[C@H]2O)c(O)c1 [formula XIV] | 1.81 ± 0.05 μmol TE/μmol | – | – | 44.6 ± 1.2*** | >100 µM | – | >2 | – | > 100 µM | –
O=C(CCc1ccc(O)c(O)c1)NCCCCNCCCNC(=O)CCc1ccc(O)c(O[C@@H]2O[C@H](CO)[C@@H](O)[C@H](O)[C@H]2O)c1 [formula XI] | 2.07 ± 0.03 μmol TE/μmol | – | 37.2 ± 2.9*** | – | >100 µM | – | >4 | – | > 100 µM | 25 µM

Reference: US11208427B2, “Dicaffeoyl spermidine derivative glycosides and use thereof” (Jinan University, priority 2016, dated 2021)
